The values below come from ChEMBL document CHEMBL4387754, “Chemical modification-mediated optimisation of bronchodilatory activity of mepenzolate, a muscarinic receptor antagonist with anti-inflammatory activity” (Bioorg Med Chem, 2019).

Series [1] in a line: Plasma concentration in ICR mouse at 10 mg/kg administered intratracheally measured after 1 min by RP-HPLC analysis. The series is classed as ADME, organism-based. To be noted: inhaled or intranasal.
Series [2] can be described thus: Plasma concentration in ICR mouse at 7.5 mg/kg, iv measured after 1 min by RP-HPLC analysis. The series is classed as ADME, organism-based.

Structures are written as SMILES.

With `C[N+]1(C)[C@@H]2C[C@@H](OC(=O)C(O)(c3cccs3)c3cccs3)C[C@H]1[C@@H]1O[C@@H]12.[Br-]`, the values for the concentration at 1 min in series [1] and in series [2] were 3000 ng/mL and 40000 ng/mL, respectively.
